Values quoted from earlier work as cited in US20030008852A1, “Transdermal system containing acetylsalicylic acid for treatment of migraine” (priority 1999, published 2003).

Tested on: migraine
Settings: oral, 235 mg every second day

## CC(=O)Oc1ccccc1C(=O)O [acetylsalicylic acid]
  reduction in the migraine recurrence rate compared with the placebo group: 20%
